The text below walks through data of patent publication US11033547B2, “Carboxamide-pyrimidine derivatives as SHP2 antagonists” (Merck Patent GmbH, priority 2019, dated 2021).

Test [1] deals with pERK level in KYSE520 cells. The test is described as follows: p-Erk cellular assay in KYSE520 (Mesoscale). The format is cell-based. Particulars: 2 h incubation, read-out: pERK1/2 in KYSE520 IC50. Here is the method:
(§1) p-Erk Cellular Assay in MDA-MB-468 and KYSE520:
(§2) The effect of SHP2 inhibitors on pERK level was assessed using phospho-specific antibody using Mesoscale quantification platform. For measuring change in pERK levels using mesoscale, 30,000 cells of MDA MB468 and KYSE520 cells were plated in 96-well tissue culture treated plate in 175 ul volume of media. After an overnight incubation at 37° C., various SHP2 inhibitors were added in different concentration to each well maintaining duplicate wells across plates and incubated with compounds for 2 h at 37° C. followed by a wash with ice cold PBS buffer. The cells were then lysed in lysis buffer and processed and analyzed for p-ERK/ERK as per manufacturer's instructions (Mesoscale discovery, cat No. K15107D-3).

The target of test [2] is Full length SHP2 protein (Recombinant Human SHP-2) (Homo sapiens, UniProt Q06124). The experiment in a line: SHP2 biochemical assay (DiFMUP substrate, activating peptide IRSI_2pY). Particulars: DiFMUP substrate, activating peptide IRSI_2pY, 60 min at RT; read-out: SHP-2 Biochemical assay IC50. On the procedure: The inhibition of SHP2 by compounds of the invention was monitored using the surrogate substrate DiFMUP after protein activation by a peptide bearing two appropriately spaced phosphotyrosine. […] The generation of the DiFMU product by activated SHP2 was monitored through Fluorescence measurement with a PerkinElmer Envision reader.
The inhibitor dose response curves were analyzed with Genedata Screener.

In test [3] the test system is pERK level in MDA-MB-468 cells. The experiment in a line: p-Erk cellular assay in MDA-MB-468 (Mesoscale). The format is cell-based. Conditions: 2 h incubation, read-out: pERK1/2 in MDA-MB-468 IC50. On the procedure:
as §1, §2

Where two headings read alike, the source gives them in different places. Bounds are passed on as bounds.

Turning to “2-((S)-3-amino-3H-spiro[benzofuran-2,4′-piperidin]-1′-yl)-5-(2,3-dichlorophenyl)-6-methylpyrimidine-4-carboxamide [Compound 122]”, the IC50 in test [1] stood at 48 nM; in test [2], 17 nM.

In the case of `CC1(N)CCN(c2nc(N)c(-c3cccc(Cl)c3Cl)c(C(N)=O)n2)CC1` (atropisomer, axis not shown; (M)) [Compound 26, (4M)-6-Amino-2-(4-amino-4-methyl-piperidin-1-yl)-5-(2,3-dichloro-phenyl)-pyrimidine-4-carboxylic acid amide], the IC50 was more than 10000 nM in test [1], 8190 nM in test [3] and more than 10000 nM in test [2].

Consider `Cc1nc(N2CCC(C)(N)CC2)nc(C(N)=O)c1-c1cccc(Cl)c1Cl` (atropisomer, axis not shown; (M)) [Compound 30, (4M)-2-(4-amino-4-methylpiperidin-1-yl)-5-(2,3-dichlorophenyl)-6-methylpyrimidine-4-carboxamide], for which the IC50 was 475 nM in test [3] and 110 nM in test [2].

Turning to `Cc1nc(N[C@@H]2CCC[C@H](N)C2)nc(C(N)=O)c1-c1cccc(Cl)c1Cl` (atropisomer, axis not shown; (M)) [Compound 88, (4M)-2-{[(1R,3S)-3-aminocyclohexyl]amino}-5-(2,3-dichlorophenyl)-6-methylpyrimidine-4-carboxamide], the IC50 in test [1] (Homo sapiens, KYSE-520, 2 h) is 4250 nM; in test [2], 410 nM.

For `CC1(N)CCN(c2nc(Cl)c(-c3cccc(Cl)c3Cl)c(C(N)=O)n2)CC1` (atropisomer, axis not shown; (P)) [Compound 79, (4P)-2-(4-amino-4-methylpiperidin-1-yl)-6-chloro-5-(2,3-dichlorophenyl)-pyrimidine-4-carboxamide], the IC50 in test [1] amounted to 837 nM; in test [3], 177 nM; in test [2] it was 30 nM.

As to `NC[C@@]12CCC[C@@H]1CN(c1nc(N)c(-c3cccc(Cl)c3Cl)c(C(N)=O)n1)C2` (atropisomer, axis not shown; (P)) [Compound 98, (5P)-2-[(3aR,6aS)-3a-(aminomethyl)octahydrocyclopenta[c]pyrrol-2-yl]-6-amino-5-(2,3-dichlorophenyl)pyrimidine-4-carboxamide], the IC50 in test [1] (Homo sapiens, KYSE-520, 2 h) was found to be 1200 nM; in test [3] (Homo sapiens, MDA-MB-468, 2 h), 395 nM; in test [2], 49 nM.

Regarding `C[C@@H]1OCC2(CCN(c3nc(N)c(-c4cccc(Cl)c4Cl)c(C(N)=O)n3)CC2)[C@@H]1N` (single isomer, unassigned) [Compound 66], the IC50 in test [1] (Homo sapiens, KYSE-520, 2 h) was found to be 863 nM; in test [3] (Homo sapiens, MDA-MB-468, 2 h), 503 nM.

Take `Cc1nc(N2CCC3(CC2)CC(F)(F)C[C@H]3N)nc(C(N)=O)c1-c1cccc(Cl)c1Cl` (single isomer, unassigned) [Compound 96]: the IC50 in test [1] (Homo sapiens, KYSE-520, 2 h) turned out to be 993 nM.

Turning to `NC[C@@]12CCCC[C@@H]1CN(c1nc(N)c(-c3cccc(Cl)c3Cl)c(C(N)=O)n1)C2` (single isomer, unassigned) [Compound 100], the IC50 in test [1] (Homo sapiens, KYSE-520, 2 h) stood at 12800 nM; in test [2], 500 nM.

Consider `NC[C@]12CCC[C@H]1CN(c1nc(N)c(-c3cccc(Cl)c3Cl)c(C(N)=O)n1)C2` (single isomer, unassigned) [Compound 104], for which the IC50 in test [1] (Homo sapiens, KYSE-520, 2 h) stood at 2250 nM; in test [2] it was 120 nM.

Turning to `CC1(N)CCN(c2ncc(-c3cccc(Cl)c3Cl)c(C(N)=O)n2)CC1` [Compound 1, 2-(4-amino-4-methylpiperidin-1-yl)-5-(2,3-dichlorophenyl)pyrimidine-4-carboxamide], the IC50 in test [3] (Homo sapiens, MDA-MB-468, 2 h) came out at 12000 nM.

`CC1(N)CCN(c2nc(N)c(-c3cccc(Cl)c3)c(C(N)=O)n2)CC1` [Compound 2, 6-Amino-2-(4-amino-4-methyl-piperidin-1-yl)-5-(3-chlorophenyl)-pyrimidine-4-carboxylic Acid Amide]: the IC50 in test [3] (Homo sapiens, MDA-MB-468, 2 h) is 3080 nM; in test [2], 2100 nM.

Turning to `CC1(N)CCN(c2nc(Cl)c(-c3cccc(Cl)c3Cl)c(C(N)=O)n2)CC1` [Compound 16, 2-(4-Amino-4-methyl-piperidin-1-yl)-6-chloro-5-(2,3-dichlorophenyl)-pyrimidine-4-carboxylic Acid Amide], the IC50 stood at 1140 nM in test [1] (Homo sapiens, KYSE-520, 2 h) and 516 nM in test [3].

As to `Cc1nc(N2C[C@@H]3CC[C@H](N)[C@@H]3C2)nc(C(N)=O)c1-c1cccc(Cl)c1Cl` [Compound 74, 2-((3aS,4S,6aR)-4-Amino-hexahydro-cyclopenta-[c]pyrrol-2-yl)-5-(2,3-dichloro-phenyl)-6-methyl-pyrimidine-4-carboxylic acid amide], the IC50 in test [2] was more than 10000 nM.

In the case of `Cc1nc(N2C[C@@H]3CC[C@@H](N)[C@@H]3C2)nc(C(N)=O)c1-c1cccc(Cl)c1Cl` [Compound 75, 2-((3aS,4R,6aR)-4-Amino-hexahydro-cyclopenta[c]pyrrol-2-yl)-5-(2,3-dichloro-phenyl)-6-methyl-pyrimidine-4-carboxylic acid amide], the IC50 in test [2] came to 2100 nM.

On to `Cc1nc(N2C[C@@H]3CCC(N)[C@H]3C2)nc(C(N)=O)c1-c1cccc(Cl)c1Cl` (stereo partly drawn) [Compound 76, 2-((3aR,6aR)-4-Amino-hexahydro-cyclopenta-[c]pyrrol-2-yl)-5-(2,3-dichloro-phenyl)-6-methyl-pyrimidine-4-carboxylic acid amide], for which the IC50 in test [2] was found to be 1000 nM.

As to `Cc1nc(N2C[C@H]3CC[C@H](N)[C@H]3C2)nc(C(N)=O)c1-c1cccc(Cl)c1Cl` [Compound 77, 2-((3aR,4S,6aS)-4-Amino-hexahydro-cyclopenta-[c]pyrrol-2-yl)-5-(2,3-dichloro-phenyl)-6-methyl-pyrimidine-4-carboxylic acid amide], in test [2], the IC50 is more than 10000 nM.

As to `Cc1nc(N2C[C@@H](N)[C@@H](O)C2)nc(C(N)=O)c1-c1cccc(Cl)c1Cl` [Compound 80, 2-((3R,4S)-3-Amino-4-hydroxy-pyrrolidin-1-yl)-5-(2,3-dichloro-phenyl)-6-methyl-pyrimidine-4-carboxylic acid amide], in test [2], the IC50 worked out at 5300 nM.

Take `Cc1nc(N2CCC(C)(N)CC2)nc(C(N)=O)c1-c1ccc(F)cc1Cl` [Compound 82, 2-(4-Amino-4-methyl-piperidin-1-yl)-5-(2-chloro-4-fluoro-phenyl)-6-methyl-pyrimidine-4-carboxylic acid amide]: the IC50 in test [2] stood at 2000 nM.

For `Cc1nc(N2CCC(C)(N)CC2)nc(C(N)=O)c1-c1cnccc1Cl` [Compound 83, 2-(4-Amino-4-methyl-piperidin-1-yl)-5-(4-chloro-pyridin-3-yl)-6-methyl-pyrimidine-4-carboxylic acid amide], in test [2], the IC50 worked out at 14000 nM.

On to `Cc1nc(N2C[C@H](N)[C@@H](O)C2)nc(C(N)=O)c1-c1cccc(Cl)c1Cl` [Compound 84, 2-((3S,4S)-3-Amino-4-hydroxy-pyrrolidin-1-yl)-5-(2,3-dichloro-phenyl)-6-methyl-pyrimidine-4-carboxylic acid amide], for which the IC50 in test [2] amounted to 6300 nM.

Take `Cc1nc(N2CCC(C)(N)CC2)nc(C(N)=O)c1-c1ccncc1` [Compound 86, 2-(4-Amino-4-methyl-piperidin-1-yl)-6-methyl-5-pyridin-4-yl-pyrimidine-4-carboxylic acid amide]: the IC50 in test [2] was more than 10000 nM.

For the compound `CC1(N)CCCN(c2nc(N)c(-c3cccc(Cl)c3Cl)c(C(N)=O)n2)CC1` (stereo not shown) [Compound 91, 6-Amino-2-(4-amino-4-methyl-azepan-1-yl)-5-(2,3-dichloro-phenyl)-pyrimidine-4-carboxylic acid amide], the IC50 was found to be 2600 nM in test [1] (Homo sapiens, KYSE-520, 2 h) and 100 nM in test [2].

In the case of `Cc1nc(N[C@H]2CC[C@@H](N)CC2)nc(C(N)=O)c1-c1cccc(Cl)c1Cl` [Compound 93, 2-(4-Amino-cyclohexyl-amino)-5-(2,3-dichloro-phenyl)-6-methyl-pyrimidine-4-carboxylic acid amide], the IC50 in test [2] was found to be 2300 nM.

Consider `Cc1nc(N2CCC(C)(N)CC2)nc(C(N)=O)c1-c1cccc(C(F)(F)F)c1Cl` [Compound 111, 2-(4-Amino-4-methyl-piperidin-1-yl)-5-(2-chloro-3-trifluoromethyl-phenyl)-6-methyl-pyrimidine-4-carboxylic acid amide], for which the IC50 in test [1] (Homo sapiens, KYSE-520, 2 h) was 4700 nM; in test [2], 530 nM.

Regarding `Cc1nc(N2CCC3(CC2)Oc2ncccc2[C@@H]3N)nc(C(N)=O)c1-c1cccc(Cl)c1Cl` [Compound 125, (4M)-2-[(3S)-3-amino-3H-spiro[furo[2,3-b]pyridine-2,4′-piperidin]-1′-yl]-5-(2,3-dichlorophenyl)-6-methylpyrimidine-4-carboxamide], the IC50 in test [2] came out at 530 nM.

For the compound `Cc1nc(N2CCC3(CC2)Oc2ncccc2[C@@H]3N)nc(C(N)=O)c1-c1cccc(Cl)c1Cl` [Compound 127, (4P)-2-[(3S)-3-amino-3H-spiro[furo[2,3-b]pyridine-2,4′-piperidin]-1′-yl]-5-(2,3-dichlorophenyl)-6-methylpyrimidine-4-carboxamide], the IC50 in test [2] was more than 10000 nM.
